Laboratory results: patent US20120283325A1, “EXCIPIENT COMPATIBILITY WITH EZATIOSTAT” (Telik, Inc., priority 2011, published 2012)

How the values were obtained:
[1] = Degradation products by HPLC of binary mixtures and formulations of ezatiostat hydrochloride over time; assay type: physicochemical; settings: 40° C. and 75% RH
Procedure: (§1) Further, ezatiostat hydrochloride was mixed with each of the excipients mentioned in Table 3. The quantity of excipient used was determined by the desired properties of the resulting formulation. These blends were prepared in scintillation vials which were screw Teflon capped and stored at 40° C. and 75% RH.
The degradation products were evaluated for each sample using HPLC at initial, 4 weeks, and 8 weeks period. For the initial and 4 week samples, the HPLC autosampler temperature was set at ambient but it was set at 5° C. for samples tested at 8 weeks. The autosampler temperature was lowered due to an observation that individual impurities were increasing during the HPLC run.
The inconsistent results obtained at four weeks were attributed to higher temperature used during HPLC. For this reason, the data at four weeks is not probative for the underlying study.

[2] = Potency results of ezatiostat hydrochloride in binary mixtures, formulations and alone stored at 40° C. and 75% RH; assay type: physicochemical; settings: for Potency: 40° C. and 75% RH
Procedure: as §1
The potency results of ezatiostat hydrochloride in the binary mixtures of Table 3, Formulations 1 and 2 of Table 2, and ezatiostat hydrochloride alone stored at 40° C. and 75% RH are shown in Table 4.

[3] = 4 weeks, autosampler ambient (data called not probative)

RS(% Area) RRT 0.74 ([1]; 0 weeks, autosampler ambient): 0.13% Area
RS(% Area) RRT 0.88 ([1]; 0 weeks, autosampler ambient): 0.09% Area
RS(% Area) Total ([1]; 0 weeks, autosampler ambient): 0.22% Area
RS(% Area) RRT 0.74 [1, 3]: 0.28% Area
RS(% Area) RRT 0.88 [1, 3]: 0.27% Area
RS(% Area) Total [1, 3]: 0.55% Area
RS(% Area) RRT 0.74 ([1]; 8 weeks, autosampler 5° C.): 0.07% Area
RS(% Area) RRT 0.88 ([1]; 8 weeks, autosampler 5° C.): 0.51% Area
RS(% Area) Total ([1]; 8 weeks, autosampler 5° C.): 0.58% Area
RS(% Area) RRT 0.88 ([1]; 8 weeks, autosampler 5° C., listed as ezatiostat hydrochloride): 0.51 % Area
Potency ([2]; T = 0 weeks): 102.1%
Potency ([2]; T = 4 weeks): 102.0%
Potency ([2]; T = 8 weeks): 100.4%
Potency change over eight weeks ([2]; storage at 40° C. and 75% RH): little change
SMILES: CCOC(=O)[C@@H](N)CCC(=O)N[C@@H](CSCc1ccccc1)C(=O)N[C@@H](C(=O)OCC)c1ccccc1.Cl [Ezatiostat•HCl, ethyl (2S)-2-amino-5-[[(2R)-3-benzylsulfanyl-1-[[(JR)-2-ethoxy-2-oxo-1-phenylethyl]amino]-1-oxopropan-2-yl]amino]-5-oxopentanoate]
Excipient compatibility ([2]; eight weeks at 40° C. and 75% RH): compatible with all the excipients investigated above
